According to patent publication US20130065888A1, “OPHTHALMIC FORMULATIONS AND PROCESSES FOR THEIR PREPARATION” (priority 2011, published 2013):

Assay: Numerical particle size distribution by microscopical image analysis of brinzolamide suspensions made by different homogenization techniques (Example 1)
Assay type: physicochemical
Settings: suspension in 0.05% Polysorbate 80, prior to treatment
Description: Preferably, particle size analyses and particle size distributions of the suspension are obtained by microscopy using a particle size analyser (preferably by following US Pharmacopeia 29 <776>—Optical Microscopy).
In Examples 1.1, 1.2 and 1.3, brinzolamide ophthalmic suspensions were prepared by using three different homogenization techniques (high pressure homogenization in accordance with the present invention, high shear homogenization and ball milling) in order to test the effectiveness these techniques on de-agglomeration of brinzolamide particles and coating of the particles with wetting agent. Three different wetting agents were used (Polysorbate 80, Poloxamer 407 and Tyloxapol). Particle size analyses were conducted by microscopy.
Portions of the suspension were treated separately by the following three methods (i)-(iii): • (i) high pressure homogenization (5000 psi/5 cycles using Microfluidizer® high pressure homogenizer) • (ii) high shear homogenization (8000 rpm/120 minutes (Ultra-Turrax high shear mixer) • (iii) ball milling (8.5 hours at 22-24 rpm (tumble blender; Zirconox beads: 0.7-1.2 mm)

particle size distribution of the individual brinzolamide particles, d90: ≤ 3.0 μm
particle size of agglomerates of brinzolamide: greater than 10 μm
SMILES: CCN[C@H]1CN(CCCOC)S(=O)(=O)c2sc(S(N)(=O)=O)cc21 [brinzolamide]
